ChEMBL document CHEMBL1201862, “PubChem BioAssay data set” (2004)
“And” between values parts separate entries of the source, which are not always exact repeats. Identical values can stand only once.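 Step 1: Grow cells in 96-well plates. Step 2: Expose to compound for 48 hours at 5 concentrations. Step 3: Interpolate endpoints linearly; if unreached, use highest concentration. At the GI50, growth is halved.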 The source made the active and inactive calls. No stated cut-off is given here; in the data, active = GI50 up to about 1.1 µM and inactive = higher.

Assays:
Test in all cases: inhibition of tumour cell growth, NCI panel, 48 h
Malme-3M = test system: Malme-3M
M14 = test system: M14
ACHN = test system: ACHN
SK-MEL-28 = test system: SK-MEL-28
KM12 = test system: KM12
NCI-H226 = test system: NCI-H226
HOP-62 = test system: HOP-62
UACC-62 = test system: UACC-62
OVCAR-8 = test system: OVCAR-8
HCC 2998 = test system: HCC 2998
786-0 = test system: 786-0
SN12C = test system: SN12C
NCI-H23 = test system: NCI-H23
LOX IMVI = test system: LOX IMVI
OVCAR-4 = test system: OVCAR-4
TK-10 = test system: TK-10
HOP-92 = test system: HOP-92
OVCAR-5 = test system: OVCAR-5
MOLT-4 = test system: MOLT-4

Compound	GI50 (Malme-3M)	GI50 (M14)	GI50 (ACHN)	GI50 (SK-MEL-28)	GI50 (KM12)	GI50 (NCI-H226)	GI50 (HOP-62)	GI50 (UACC-62)	GI50 (OVCAR-8)	GI50 (HCC 2998)	GI50 (786-0)	GI50 (SN12C)	GI50 (NCI-H23)	GI50 (LOX IMVI)	GI50 (OVCAR-4)	GI50 (TK-10)	GI50 (HOP-92)	GI50 (OVCAR-5)	GI50 (MOLT-4)
CCNC(=O)CCC(C)[C@H]1CCC2C3C(C[C@H](OC(C)=O)[C@@]21C)[C@@]1(C)CCC2(C[C@H]1C[C@H]3OC(C)=O)OOC1(CCC(C)CC1)OO2 (stereo partly drawn)	2.23 µM (inactive) and 1.6 µM (inactive)	2.73 µM (inactive) and 2.14 µM (inactive)	1.55 µM (inactive) and 1.63 µM (inactive)	2.9 µM (inactive) and 3.47 µM (inactive)	1.64 µM (inactive) and 1.57 µM (inactive)	1.52 µM (inactive) and 1.69 µM (inactive)	689 nM (active) and 1.31 µM (inactive)	1.69 µM (inactive) and 2.26 µM (inactive)	2.61 µM (inactive) and 1.51 µM (inactive)	1.75 µM (inactive) and 3.1 µM (inactive)	2.38 µM (inactive) and 1.58 µM (inactive)	2.52 µM (inactive) and 1.83 µM (inactive)	2.13 µM (inactive) and 2.2 µM (inactive)	1.83 µM (inactive) and 2.05 µM (inactive)	1.24 µM (inactive) and 1.58 µM (inactive)	2.3 µM (inactive) and 2.43 µM (inactive)	1.68 µM (inactive) and 1.44 µM (inactive)	2.7 µM (inactive) and 1.82 µM (inactive)	
Cc1nc2cc(Cl)c(N)cc2[nH]1	> 100 µM (inactive)	> 100 µM (inactive)	> 100 µM (inactive)	> 100 µM (inactive)	> 100 µM (inactive)	> 100 µM (inactive)	> 100 µM (inactive)	> 100 µM (inactive)	> 100 µM (inactive)	> 10 µM (inactive)	> 100 µM (inactive)	> 100 µM (inactive)	> 100 µM (inactive)	> 100 µM (inactive)		> 100 µM (inactive)		> 100 µM (inactive)	> 100 µM (inactive)
NC(=O)C1CCCN1C(=O)N(CCCl)N=O (stereo not drawn)	> 100 µM (inactive)	> 100 µM (inactive)	> 100 µM (inactive)	> 100 µM (inactive)	> 100 µM (inactive)	> 100 µM (inactive)	> 100 µM (inactive)	> 100 µM (inactive)	> 100 µM (inactive)	> 100 µM (inactive)	> 100 µM (inactive)	> 100 µM (inactive)	> 100 µM (inactive)	> 100 µM (inactive)	> 100 µM (inactive)	> 100 µM (inactive)	> 100 µM (inactive)	54.5 µM (inactive)	> 100 µM (inactive)
CC(C)C1C(=O)N2CCCC2C2(O)OC(NC(=O)C3C=C4c5cccc6[nH]cc(c56)CC4N(C)C3)(C(C)C)C(=O)N12 (stereo not drawn)		23.8 µM (inactive)	18.9 µM (inactive)	25.5 µM (inactive)	20.7 µM (inactive)		23.4 µM (inactive)	18.1 µM (inactive)	19.2 µM (inactive)	19.7 µM (inactive)	17.9 µM (inactive)	35.4 µM (inactive)	26.9 µM (inactive)	18.1 µM (inactive)	18.3 µM (inactive)	21.8 µM (inactive)	14.2 µM (inactive)	13.2 µM (inactive)	17 µM (inactive)
CN(Cc1cnc2nc(N)nc(N)c2n1)c1ccc(C(=O)NC(CCS(=O)(=O)O)C(=O)O)cc1 (stereo not drawn)		0.682 µM (active)	0.527 µM (active)	> 100 µM (inactive)	0.661 µM (active)	15.7 µM (inactive)	0.783 µM (active)	0.508 µM (active)	21.9 µM (inactive)	0.916 µM (active)	0.132 µM (active)	4.57 µM (inactive)	1.88 µM (inactive)	0.103 µM (active)	> 100 µM (inactive)	> 100 µM (inactive)	> 100 µM (inactive)	0.144 µM (active)	0.593 µM (active)
COc1cccc(C2SCC(=O)N2c2ccc(-c3ccc(-n4c(-c5ccccc5)nc5ccccc5c4=O)cc3)cc2)c1OC (stereo not drawn)	> 100 µM (inactive)	> 100 µM (inactive)	> 100 µM (inactive)	> 100 µM (inactive)	50.4 µM (inactive)	74.1 µM (inactive)	> 100 µM (inactive)	29 µM (inactive)	> 100 µM (inactive)	> 100 µM (inactive)	> 100 µM (inactive)	> 100 µM (inactive)	> 100 µM (inactive)	50.7 µM (inactive)	77.6 µM (inactive)	> 100 µM (inactive)	55.8 µM (inactive)	> 100 µM (inactive)	60.8 µM (inactive)
CCCC/C=C/C=C/C=C/CCCCCCCC(=O)OCC(COC(=O)CCCCCCC/C=C/C1C=CC(CCCC)C(C(=O)O)C1C(=O)O)OC(=O)CCCCCCC/C=C/C=C/C=C/CCCC.OCCNCO (stereo not drawn)	20.9 µM (inactive)	15.4 µM (inactive)	19 µM (inactive)	18.3 µM (inactive)	18.7 µM (inactive)	17.5 µM (inactive)	18.6 µM (inactive)	14.8 µM (inactive)	19.6 µM (inactive)	23.4 µM (inactive)	13.7 µM (inactive)	20 µM (inactive)	19.4 µM (inactive)	13.2 µM (inactive)	17 µM (inactive)	19.1 µM (inactive)	23.8 µM (inactive)	20.2 µM (inactive)	23.7 µM (inactive)
N#CCCC1(CCC#N)CCc2ccccc2C1=O	> 100 µM (inactive)	> 100 µM (inactive)	> 100 µM (inactive)	> 100 µM (inactive)	> 100 µM (inactive)	> 100 µM (inactive)	> 100 µM (inactive)	> 100 µM (inactive)	> 100 µM (inactive)	> 100 µM (inactive)	> 100 µM (inactive)	> 100 µM (inactive)	> 100 µM (inactive)	> 100 µM (inactive)	> 100 µM (inactive)	> 100 µM (inactive)		> 100 µM (inactive)	> 100 µM (inactive)
CCOC(=O)/C(C)=C\[C@@]1(C)O[C@@H](C)[C@@](C)(OC(C)=O)[C@@H]1OC(C)=O	57.3 µM (inactive)	61.5 µM (inactive)	41 µM (inactive)	> 100 µM (inactive)	45.2 µM (inactive)	39.9 µM (inactive)	70.6 µM (inactive)	49.9 µM (inactive)	67.5 µM (inactive)	30.2 µM (inactive)	63.5 µM (inactive)	57.1 µM (inactive)	21.5 µM (inactive)	71 µM (inactive)	33.4 µM (inactive)	78.9 µM (inactive)	25.6 µM (inactive)	> 100 µM (inactive)	30 µM (inactive)
CCOC(=O)/C(=C/c1ccc(Cl)cc1)N(CC)CC	> 100 µM (inactive)	> 100 µM (inactive)	> 100 µM (inactive)	> 100 µM (inactive)	> 100 µM (inactive)	> 100 µM (inactive)	> 100 µM (inactive)	> 100 µM (inactive)	> 100 µM (inactive)	> 100 µM (inactive)	> 100 µM (inactive)	> 100 µM (inactive)	> 100 µM (inactive)	> 100 µM (inactive)	> 100 µM (inactive)	> 100 µM (inactive)	74.1 µM (inactive)	> 100 µM (inactive)	> 100 µM (inactive)
